# Assay results taken from US4922021A, “New alkylene diamine derivatives” (BASF Aktiensellschaft, priority 1981, dated 1990).
# Tests used:
# [1] = J. Med. Chem. 6, 705 (1963); cited from earlier work
# [2] = system: aconitin-induced arrhythmia; test: animal or person; conditions: Mus musculus, ip, read-out: Delay in time of appearance of arrhythmia
# [3] = system: aconitin-induced arrhythmia; conditions: mouse, in vivo, po, 100 mg/kg
# [4] = system: ouabain-induced arrhythmia; test: Ouabain-induced arrhythmia in anaesthetized dogs; assay type: in vivo
# Protocol: Anaesthetized dogs of both sexes were treated intravenously with an infusion of 60 /ug/kg of ouabain to provoke arrhythmia, and the arrhythmic state was maintained with an ouabain dose 60 times less than the initial. In this way a ventricular tachycardia or tachyarrhythmia lasting for more than 180 minutes was provoked. The compounds were tested during this period. The period of recovered normal sinus rhythm was recorded, and when a compound exerted protective effect for more than 30 minutes, this fact was regarded as complete protection. The tests were performed essentially according to the method of Piascik et al. [Can.
# Examination of the anti-arrhythmic effect in dogs anaesthetized with a 30
# of pentobarbital sodium and treated with ouabain
# [5] = system: fibrillation threshold of the heart; test: Determination of the fibrillation threshold in anaesthetized cats; assay type: in vivo
# From the text: The chests of the cats were opened under chloralose-urethane anaesthesia a bipolar stimulating electrode was fixed onto the heart, and the heart was stimulated electrically with a frequency of 20 Hz, under continuously increasing current strength, until a fibrillo-flattern could be observed. This current strength was regarded as the fibrillation threshold of the animal.
# [6] = system: barium chloride-induced arrhythmia; test: Barium chloride-induced arrhythmia in awake rabbits; assay type: in vivo; conditions: 2 mg/kg
# Protocol: The compounds to be tested were administered intravenously to the animals 3 minutes after treating them with barium chloride, and the effect was recorded. It was regarded as a positive protecting effect when the compound suspended the arrhythmic condition for at least 3 minutes.
# [7] = system: left auricle; test: Electrophysiological tests on isolated rabbit heart, left auricle; parameters: species or system rabbits; conditions: 2 mg/l, average
# Protocol: (§1) Heart of rabbits of both sexes, weighing 1-2 kg, were removed, the right and left auricles and a segment of the right ventricle were prepared and placed into a vessel filled with nutrient solution. Bipolar platinum electrodes (a stimulating electrode and a lead electrode) were placed onto the organ strips, and the electric stimulus threshold and the speed of impulse condution were measured. The effective refractory period determined on the basis of the maximum driving frequency.
# [8] = system: myocardial contractile force, arterial blood pressure and pulse rate; test: Inotropic effects (myocardial contractile force) in anaesthetized cats; assay type: in vivo; conditions: i.v.; for Contractility, change: basal 100
# Protocol: Cats were anaesthetized with chloralose-urethane, a cannula was lead into the femoral artery, and the cannula was connected, through a Statham P 23 Db pressure sensor, to a Hellige recorder, where the arterial blood pressure and the pulse rate were recorded. The animals were respirated artifically, their chests were opened, and a strain gage was sutured on the left heart. The strain gage was connected to the Hellige recorder, and the variations in cardiac contractile force were recorded. The test compounds were administered to the animals intravenously through a cannula.
# [9] = system: systemic and pulmonary circulation; test: Effects on the systemic and pulmonary circulation of awake cats; assay type: in vivo; conditions: i.v., 1.0 mg/kg
# From the text: Cats were anaesthetized with pentobarbital, and cannulas were placed into the carotis artery and, through the jugular vein, into the pulmonary artery. An additional cannula was placed into the jugular vein for the administration of the test compound. The cannulas were filled up with heparin in order to avoid blood clotting. Thereafter the wounds were sutured, and the cannulas were led below a bandage placed around the neck of the animal. 3 days after this operation the systemic arterial blood pressure, the pulmonary arterial pressure and the pulse rate of the awake animals were measured with a Hellige recorder, connected to the cannulas through a Statham P 23 Db type pressure transducer.
# [10] = system: right ventricle; test: Electrophysiological tests on isolated rabbit heart, right ventricle; parameters: species or system rabbits; conditions: 2 mg/l, average
# Protocol: as §1
smiles,measurement,setting,value
"Cc1cccc(C)c1N(C)CCN [N-methyl-N-(2,6-dimethylphenyl)-ethylenediamine]",hypotensive effects,[1],hypotensive effects
"Cc1cccc(C)c1NCCN [N-(2,6-dimethylphenyl)-ethylenediamine]",hypotensive effects,[1],hypotensive effects
"Cc1cccc(C)c1NCCC(C)N (centres unmarked) [1-(2,6-dimethylphenyl-amino)-3-amino-butane]",change in vivo at 10 mg/kg,[2],0%
same,change in vivo at 25 mg/kg,[2],48%
same,change in vivo at 50 mg/kg,[2],87%
same,change in vivo at 75 mg/kg,[2],135%
same,Delay in the appearance time of arrhythmia,[3],+84.0%
same,Average time of partial suspension,"[4]; i.v., 0.5 mg/kg",0.3 min
same,"Complete suspension, number of cases","[4]; i.v., 0.5 mg/kg, protection > 30 min = complete",1/16
same,Average time of partial suspension,"[4]; i.v., 1.0 mg/kg",0.8 min
same,"Complete suspension, number of cases","[4]; i.v., 1.0 mg/kg, protection > 30 min = complete",1/15
same,Average time of partial suspension,"[4]; i.v., 2.0 mg/kg",3.7 min
same,"Complete suspension, number of cases","[4]; i.v., 2.0 mg/kg, protection > 30 min = complete",2/15
same,Average time of partial suspension,"[4]; i.v., 4.0 mg/kg",5.4 min
same,"Complete suspension, number of cases","[4]; i.v., 4.0 mg/kg, protection > 30 min = complete",7/14
same,Average time of partial suspension,"[4]; i.v., 8.0 mg/kg",6.5 min
same,"Complete suspension, number of cases","[4]; i.v., 8.0 mg/kg, protection > 30 min = complete",3/5
same,Effect on the fibrillation threshold,"[5]; i.v., 0.5 mg/kg",+2.3%
same,Effect on the fibrillation threshold,"[5]; i.v., 1.0 mg/kg",+3.0%
same,Effect on the fibrillation threshold,"[5]; i.v., 2.0 mg/kg",+16.5%
same,Effect on the fibrillation threshold,"[5]; i.v., 4.0 mg/kg",+52.9%
same,"Protecting effect, number of animals","[6]; i.v., arrhythmia suspended for at least 3 minutes",5/10
"CCN(CCN)c1c(C)cccc1C [N-ethyl-N-(2,6-dimethylphenyl)-ethylenediamine]",hypotensive effects,[1],hypotensive effects
"Cc1cccc(C)c1OCC(C)N.Cl (centres unmarked) [1-(2,6-Dimethylphenoxy)-2-aminopropane hydrochloride, reference compound]",change in vivo at 5 mg/kg,[2],3.5%
same,change in vivo at 10 mg/kg,[2],7.7%
same,change in vivo at 25 mg/kg,[2],33.3%
same,change in vivo at 50 mg/kg,[2],83.1%
same,change in vivo at 75 mg/kg,[2],162%
same,Change of the conduction time,[7],+24%
same,Change of the effective refractory period,[7],+32%
same,Change of the electric stimulus threshold,[7],+36%
same,Delay in the appearance time of arrhythmia,[3],+82.0%
same,Average time of partial suspension,"[4]; dog, in vivo, iv, 0.5 mg/kg",0.5 min
same,"Complete suspension, number of cases","[4]; dog, in vivo, iv, 0.5 mg/kg",1/15
same,Average time of partial suspension,"[4]; dog, in vivo, iv, 1 mg/kg",2.6 min
same,"Complete suspension, number of cases","[4]; dog, in vivo, iv, 1 mg/kg",1/15
same,Average time of partial suspension,"[4]; dog, in vivo, iv, 2 mg/kg",2.9 min
same,"Complete suspension, number of cases","[4]; dog, in vivo, iv, 2 mg/kg",3/14
same,Average time of partial suspension,"[4]; dog, in vivo, iv, 4 mg/kg",1.4 min
same,"Complete suspension, number of cases","[4]; dog, in vivo, iv, 4 mg/kg",4/9
same,Average time of partial suspension,"[4]; dog, in vivo, iv, 8 mg/kg",10.3 min
same,"Complete suspension, number of cases","[4]; dog, in vivo, iv, 8 mg/kg",2/5
same,"Arterial blood pressure, change",[8]; 0.5 mg/kg,-45 mmHg
same,"Pulse/minute, change",[8]; 0.5 mg/kg,-40 min⁻¹
same,"Contractility, change",[8]; 0.5 mg/kg,-29%
same,"Arterial blood pressure, change",[8]; 1.0 mg/kg,-40 mmHg
same,"Pulse/minute, change",[8]; 1.0 mg/kg,-50 min⁻¹
same,"Contractility, change",[8]; 1.0 mg/kg,-32%
same,"Arterial blood pressure, change",[8]; 2.0 mg/kg,-60 mmHg
same,"Pulse/minute, change",[8]; 2.0 mg/kg,-50 min⁻¹
same,"Contractility, change",[8]; 2.0 mg/kg,-38%
same,"Arterial blood pressure, change",[8]; 5.0 mg/kg,-65 mmHg
same,"Pulse/minute, change",[8]; 5.0 mg/kg,-50 min⁻¹
same,"Contractility, change",[8]; 5.0 mg/kg,-57%
same,Effect on the fibrillation threshold,"[5]; in vivo, iv, 0.5 mg/kg",+9.4%
same,Effect on the fibrillation threshold,"[5]; in vivo, iv, 1 mg/kg",+12.9%
same,Effect on the fibrillation threshold,"[5]; in vivo, iv, 2 mg/kg",+24.8%
same,Effect on the fibrillation threshold,"[5]; in vivo, iv, 4 mg/kg",+34.0%
same,"Protecting effect, number of animals","[6]; rabbit, in vivo, iv",4/10
same,"Pulmonary arterial mean pressure, change",[9]; basal 13,+6 mmHg
same,"Arterial blood pressure, change",[9]; basal 102,-39 mmHg
same,"Pulse/minute, change",[9]; basal 190-200,-66 min⁻¹
same,Change of the conduction time,[10],+11%
same,Change of the effective refractory period,[10],+28%
same,Change of the electric stimulus threshold,[10],+14%
